Assay results reported in patent publication US20130197023A1, “NEUROPROTECTION BY PHARMACOLOGICAL CHAPERONING OF NICOTINIC ACETYLCHOLINE RECEPTORS” (priority 2012, published 2013).
Read-outs that look alike come from different tables or passages of the source.

Legend:
ATF6 [1] = assay type: cell-based, mouse
Description: Mouse Neuro-2a cells were cultured using standard tissue culture techniques and maintained in 45% DMEM, 45% OptiMEM and 10% FBS. Plasmid concentrations used for transfection were as follows: 500 ng of each nAChR subunit, 75 ng of pCS2-mcherry, 250 ng of Sec24D constructs, 100 ng of pDsRed2-ER, 250 ng of GaIT-eCFP and 500 ng of ATF6-eGFP. 90,000 cells were plated in poly-D-lysine coated 35 mm MatTek glass bottom imaging dishes. The following day, plasmid DNA was mixed with cationic lipids by adding appropriate DNA concentrations to 4 μl of Expressfect transfection reagent in 200 μl DMEM final volume and incubated for 20 min at room temperature to form cationic lipid-DNA complexes. DMEM+DNA-lipid complexes were added to Neuro-2a cells in 1 ml of DMEM+10% FBS and incubated at 37° C. for 4 h. Dishes were rinsed 2× with DMEM, then filled with 3 ml of DMEM+10% FBS and incubated at 37° C. for 48 h. Nicotine, cytisine or DHβE was added at appropriate concentrations during the change of medium following 4 h incubation with Expressfect-plasmid DNA complexes.

ATF6 [2] = settings: 24 hr, 0.1 μM nicotine
Description: (§1) Cortical neurons were extracted from day 17 mouse embryos; 150,000 cells were plated in each 35 mm poly-l-lysine-coated glass bottom culture dish in a solution containing Neurobasal, B27, and Glutamax supplemented with 3% equine serum. On day four of culture, neurons were treated with 1 μM cytosine arabinoside. Neurons were maintained via 50% exchange with feeding medium (Neurobasal, B27, and Glutamax) twice per wk. Neurons were transfected five days after plating as follows: 1 μg of each nAChR subunit plasmid was incubated with 20 μg Nupherin Neuron in 400 μl of Neurobasal medium. 10 μL of Lipofectamine 2000 was separately incubated for 15 min in 400 μl Neurobasal medium. The two solutions were combined and incubated for 45 min at room temperature, then applied to cells. After 1 hr incubation, the total medium was replaced with fresh 2 ml medium with or without 0.1 μM nicotine. For immunostaining, cultures were fixed the following day with 4% paraformaldehyde (10 min), permeabilized in 0.02% Tris-buffered saline (TBS)-TritonX (15 min) and blocked in 10% goat serum (30 min). Following 2×TBS washes, the appropriate primary antibody in 1% goat serum was applied overnight at 4° C. The following day cultures were rinsed in TBS, and incubated in 1% goat serum containing secondary antibody (1:5000) (30 min). Cells were rinsed in TBS and imaged immediately.
(§2) Immunostaining employed ATF6 mouse monoclonal (Abcam, 11909, 1:50 dilution), rabbit polyclonal peIF2α and total eIF2α (Cell Signaling Technology, 9721 and 5324, both 1:200 dilution). Alexa 488-labeled secondary antibodies were used (Invitrogen, donkey anti-mouse and goat anti-rabbit).

eIF2α = settings: 24 h, 0.1 μM nicotine; for whole cell and cytoplasmic peIF2α fluorescence: p=0.06
Description: as §1, §2

Neuro-2a cells = assay type: cell-based, mouse
Description: Neuro-2a cells were transfected with α4-eGFP (500 ng)+β2wt (500 ng)+GaIT-mcherry (250 ng) or pDSred2-ER (100 ng) and cells were incubated for 48 h with appropriate concentrations of nicotine, cytisine or DHβE.
In ImageJ, background was subtracted, and DSred2-ER fluorescence was thresholded and demarcated for each cell.

α4β2 nAChRs [3] = target: T1, α4β2 nAChRs (Mus musculus, UniProt O70174+Q9ERK7); settings: chronic nicotine, 200 nM for 24 hr
Excerpt: We used superecliptic phluorin (SEP) fused to the C-terminus of alpha4 nicotinic receptors (nAChRs) to examine the subcellular distribution and trafficking dynamics of receptors expressed in cortical neurons. SEP is a pH-sensitive version of green fluorescent protein (GFP) that undergoes 488 nm excitation at neutral pH (˜7.4), but loses this excitation maximum under acidic conditions (12). As a result, SEP neither photobleaches nor fluoresces at low pH but regains its fluorescence at neutral and basic pH. Tagging of α4 on the extracellular C-terminus results in the orientation of SEP on the lumenal side of most organelle types in the secretory pathway. While the endoplasmic reticulum (ER) and cis-Golgi have lumenal pH of ˜7.2 and ˜6.7, respectively, the lumen of both the trans-Golgi network and secretory vesicles is much more acidic (pH<6.5) (39). If one illuminates via total internal reflection (TIRF) microscopy, only those receptors resident in nearly neutral organelles close to the plasma membrane, or inserted in the plasma membrane, are visible within the excitation field. Thus, receptors in the later stages of the secretory pathway neither fluoresce nor photobleach due to the acidic environment. […]

α4β4 receptors = α4β4 receptors (Mus musculus, UniProt O70174+Q8R493); settings: acute nicotine, 1 μM
Description: Additional experiments examined the effect of acute nicotine at a higher concentration (1 μM) on α4β4 receptors as well.

α4β2 nAChRs [4] = target: T1, α4β2 nAChRs
Description: For NFRET experiments, Neuro-2a cells were transfected with GaIT-eCFP+α4-mcherry+β2-eGFP subunits. GaIT-eCFP was used to label the TG, TGN (Schaub et al., 2006). Cells transfected with α4-mcherryβ2wt or α4wtβ2-eGFP nAChRs were included in every imaging session to control for pixel saturation and spectral bleedthrough. Live cells were imaged using an Eclipse C1si laser scanning confocal microscope. During image acquisition, cells were focused to a plane where the GaIT-eCFP fluorescence was best visualized. Images with emission spectra for eCFP, eGFP and mcherry were acquired in 5-nm bins between 470 and 620 nm. 439, 488 and 561 nm laser lines were used to excite eCFP, eGFP and mcherry respectively. Images were linearly unmixed using reference spectra for eCFP, eGFP and mcherry with emission maxima at 477, 508 and 608 nm. Reference spectra were acquired from Neuro-2a cells transfected with either GaIT-eCFP or α4-mcherryβ2wt or α4wtβ2-eGFP during the same imaging session. Linear unmixing was used to separate all three emission spectra from each image. Linearly unmixed images were compiled into donor spectral bleed-through stacks, acceptor spectral bleed-through stacks, and sample image stacks.
The PixFRET ImageJ plugin was used to determine the eGFP and mcherry spectral bleedthrough (BT) values and to calculate the net FRET (nF) (equation 1) and normalized FRET (NFRET) at each pixel. With the background and bleed-through corrections set, the nF for each pixel as described by equation 1 was calculated and the data were presented as 32-bit images. nF was divided by the square root of eGFP and mcherry intensities (equation 2) to obtain the normalized FRET (NFRET) value at each pixel. FRET normalization was used to control for large differences in fluorophore expression within subcellular regions and between different cells in a dish.
where, nF=net FRET, IFRET=mcherry sensitized emission with 488 nm excitation, IeGFP=eGFP emission with 488 nm excitation, BTeGFP=spectral bleedthrough of eGFP emission into mcherry emission spectra at 488 nm excitation, Imcherry=mcherry emission with 561 nm excitation and BTmcherry=spectral bleedthrough of mcherry emission into eGFP emission spectra at 561 nm excitation. IFRET, IeGFP and Imcherry were obtained from Neuro-2a cells transfected with GaIT-eCFP+α4-mcherry+β2-eGFP. BTeGFP and BTmcherry values were obtained from Neuro-2a cells transfected with α4-mcherry+β2wt and α4wt+β2-eGFP respectively.
Histograms of NFRET (x-axis) versus number of pixels (y-axis) of each imaged cell were compiled for either the whole cell sections or the TG, TGN ROIs, demarcated by intensity-based thresholding of GaIT-eCFP fluorescence. Frequency histograms obtained in this way (omitting values of zero) were merged for all cells in each experimental group and fitted to two Gaussian components such that a minimum goodness of fit (R^2) value of 0.995 was achieved. Ratios of area under the curve for the two Gaussian components with high and low mean NFRET values were used to determine changes in receptor stoichiometry between experimental groups: NFRET histograms were fitted to Gaussian components, yielding the total pixel area under either the A1 (low mean NFRET fit) or A2 (high mean NFRET fit) components. For quantitative measurements of stoichiometry, we compared the fractional area (FA) for the low NFRET component in each case as given by the following equation:
where, FA=fractional area, A1=area under the curve for low mean NFRET Gaussian component and A2=area under the curve for high mean NFRET Gaussian component.
Due to variability resulting from cell passage number, we imaged untreated control cells on the same day to compare and evaluate the effects of drug exposure on stoichiometry.

T1 sequence (O70174 31-629): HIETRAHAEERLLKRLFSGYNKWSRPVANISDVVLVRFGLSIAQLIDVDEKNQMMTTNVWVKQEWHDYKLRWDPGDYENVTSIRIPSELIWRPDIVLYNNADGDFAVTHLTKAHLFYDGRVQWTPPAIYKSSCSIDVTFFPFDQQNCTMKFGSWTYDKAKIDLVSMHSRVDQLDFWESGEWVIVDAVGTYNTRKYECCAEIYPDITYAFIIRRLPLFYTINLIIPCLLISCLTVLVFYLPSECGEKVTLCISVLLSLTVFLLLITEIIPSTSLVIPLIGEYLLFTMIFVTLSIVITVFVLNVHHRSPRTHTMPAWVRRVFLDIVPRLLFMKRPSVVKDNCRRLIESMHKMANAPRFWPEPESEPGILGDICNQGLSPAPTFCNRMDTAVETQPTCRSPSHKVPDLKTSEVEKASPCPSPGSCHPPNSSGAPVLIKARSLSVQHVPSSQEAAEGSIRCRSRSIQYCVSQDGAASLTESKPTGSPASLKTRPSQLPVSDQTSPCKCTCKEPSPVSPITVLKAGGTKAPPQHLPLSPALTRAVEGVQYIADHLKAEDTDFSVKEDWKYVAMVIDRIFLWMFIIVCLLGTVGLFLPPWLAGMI
T1 sequence (Q9ERK7 26-501): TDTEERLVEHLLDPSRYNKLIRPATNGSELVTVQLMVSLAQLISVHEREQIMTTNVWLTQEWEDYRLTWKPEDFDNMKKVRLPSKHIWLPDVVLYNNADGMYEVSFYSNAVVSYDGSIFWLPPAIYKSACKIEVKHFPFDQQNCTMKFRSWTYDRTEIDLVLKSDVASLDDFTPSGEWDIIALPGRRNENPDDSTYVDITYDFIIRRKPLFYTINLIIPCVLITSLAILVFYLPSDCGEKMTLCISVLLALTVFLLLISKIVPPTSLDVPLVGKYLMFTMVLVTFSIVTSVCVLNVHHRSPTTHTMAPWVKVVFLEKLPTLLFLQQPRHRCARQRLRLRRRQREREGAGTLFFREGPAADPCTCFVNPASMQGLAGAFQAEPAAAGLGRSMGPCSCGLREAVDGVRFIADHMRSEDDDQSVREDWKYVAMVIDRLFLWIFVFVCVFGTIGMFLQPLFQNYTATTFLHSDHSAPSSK
Chain of α4β4 receptors (O70174 31-629): as the sequence (O70174 31-629) above
Chain of α4β4 receptors (Q8R493 21-495): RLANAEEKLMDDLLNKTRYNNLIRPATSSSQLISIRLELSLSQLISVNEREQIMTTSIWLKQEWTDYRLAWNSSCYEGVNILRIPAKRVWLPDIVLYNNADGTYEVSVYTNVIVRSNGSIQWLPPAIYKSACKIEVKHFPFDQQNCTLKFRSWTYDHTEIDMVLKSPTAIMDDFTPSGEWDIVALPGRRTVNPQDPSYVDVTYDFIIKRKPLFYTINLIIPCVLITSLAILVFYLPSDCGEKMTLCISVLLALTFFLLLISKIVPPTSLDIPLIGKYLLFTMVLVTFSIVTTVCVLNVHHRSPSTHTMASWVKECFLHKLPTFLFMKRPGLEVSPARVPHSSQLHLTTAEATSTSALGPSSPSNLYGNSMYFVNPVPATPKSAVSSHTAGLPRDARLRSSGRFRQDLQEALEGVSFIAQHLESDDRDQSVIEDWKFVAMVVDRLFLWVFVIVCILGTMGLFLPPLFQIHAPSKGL

For `CN1CCCC1c1cccnc1` (stereo not shown) [Nicotine, nicotine], the “reduction in the ratio of nuclear to whole cell ATF6-eGFP fluorescence” value (ATF6 [1]) was ~25%, the “reduction in the nucleus to whole cell ATF6 fluorescence ratio” value (ATF6 [2]; compared to untreated cells) was 50% and the “α4-mcherryβ2wt-expressing cells showing nuclear ATF6 localization” value (ATF6 [2]; 56% in the absence of nicotine) was 14%. The “total eIF2α fluorescence within the cytoplasm or nucleus” value (eIF2α) was “did not affect”, the “total eIF2α fluorescence within the cytoplasm or nucleus” value (eIF2α; listed as nicotine) was “without affecting” and the “whole cell and cytoplasmic peIF2α fluorescence” value (eIF2α) was “near significant reduction”. The “whole cell and cytoplasmic peIF2α fluorescence” value (eIF2α; listed as nicotine) was “trend towards reduction”, the “effect on peripheral ER area (in words)” value (Neuro-2a cells) was “increased” and the “increase in the average ER area” value (Neuro-2a cells) was 1.7 fold. For the same compound, the “increase in the number of insertion events, α4β2 nAChRs” value (α4β2 nAChRs [3]) was ~2 fold, the “Fnic/F0 (SEP fluorescence, receptors in the membrane)” value (α4β4 receptors) was 65%+/−0.03 and the “TG+TGN FA (fractional area of low NFRET component)” value (α4β2 nAChRs [4]) was 0.80. The “whole cell FA (fractional area of low NFRET component)” value (α4β2 nAChRs [4]) was 0.74.
